This is an account of results in patent US20250101062A1, “ANTIMICROBIAL PEPTIDES” (Board of Regents of the University of Nebraska, priority 2023, published 2025).

Where no end group is shown, it is not given here.

For series [1], the system named is E. coli E423-17 biofilms. Put plainly: Disruption of preformed biofilms in vitro (XTT). The format is cell-based, Escherichia coli. Particulars: for effect on biofilms: 24 h preformed biofilm. The protocol:
Effects of Peptides on Established Biofilms in Vitro. Bacteria (S. aureus USA300 LAC and E. coli E423-17) were grown in rich TSB media overnight. A second inoculation was made the next day to reach an exponential phase (OD600˜0.4). Microtiter plates (96 wells, Corning Costar Cat no. 3595), after aliquoting with 180 μL of the culture to each well, were incubated at 37° C. for 24 hours to form biofilms in rich TSB. Media were aspirated post incubation, and the attached biofilms were washed with 1×PBS to remove the planktonic bacteria. […] Biofilms treated with water served as the positive control, while media without bacterial inoculation served as the negative control. Live cells in the biofilms were quantitated using XTT as described above. Absorbance was read at 450 nm (only media with XTT containing wells served as the blank) using a ChroMate™ microtiter plate reader. Percentage biofilm growth for the peptide was plotted by assuming 100% biofilm growth in bacterial control alone. The data were represented as mean±SD; plots were generated using GraphPad prism 7, where * indicates p<0.05, **p<0.01, and ***P<0.001, and ****p<0.0001 (one-way analyses of variance).

Series [2] has as its target T1, chymotrypsin (Bos taurus, UniProt P00766).
T1 construct: purchased Thermo Fisher Scientific
The format is in vitro ADME, mammalian.

Series [3] concerns MRSA USA300. Put plainly: Membrane depolarization (DiBAC4(3)). The format is cell-based, Staphylococcus aureus. The protocol: An overnight culture of MRSA USA300 was inoculated into TSB and grown to an exponential phase. Bacteria were washed with 1×PBS, resuspended in twice the volume of 1×PBS containing 25 mM glucose, and incubated at 37° C. for 15 minutes. Then, 500 nM (final concentration) of DiBAC4 (3) bis(1, 3-dibutylbarbituric acid) trimethine oxonol (ANASPEC, CA) was added, and the mixture was vortexed gently. Aliquots of 90 μL of the energized bacteria solution were loaded into the 96-well plates (Corning COSTAR, AZ) and placed in a FLUOstar® Omega microplate reader (BMG LABTECH, NC). Fluorescence was read for 20 minutes at excitation and emission wavelengths of 485 and 520 nm, respectively. Then, 10 μL of peptide solutions was added, and fluorescence readings were recorded for 40 minutes. Triton® X-100 (0.1%) was used as the positive control.
Bacterial membrane depolarization was conducted (Marks, et al. (2013) PLoS One 8(5):e63158). […] Aliquots of 90 μL of the energized bacteria solution were loaded to the 96 well plates (Corning COSTAR, AZ) and placed in a FLUOstar® Omega microplate reader (BMG LABTECH, NC). Fluorescence was read for 20 minutes at excitation and emission wavelengths of 485 nm and 520 nm, respectively. Then, 10 μL of peptide solutions was added and fluorescence readings were recorded for 40 minutes. […]

Series [4] deals with trypsin. As to conditions: peptide:protease 40:1, 37° C., 1 hour. On the procedure: A solution of peptide/protease (40:1 molar ratio) was made in phosphate-buffered saline (PBS; pH 7.1, Gibco, NY) and incubated at 37° C. for 1 hour. As controls, peptides without proteases were also incubated in the same manner. Then, aliquots of 10 μL were transferred to a 96-well polystyrene microplate and mixed with the exponential-phase MRSA USA300 culture as performed in the antibacterial activity assays above.

In series [5] the test system is human red blood cells. Put plainly: Hemolytic assay. The format is cell-based. Particulars: human, 1 h, 400 μM. The method in brief:
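Washed human erythrocytes at 2% in isotonic saline incubated 1 h at 37 °C with serially diluted peptides. After centrifugation, released hemoglobin read at 545 nm relative to 1% Triton X-100; HC50 is the peptide concentration giving 50% lysis.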

Series [6] can be described thus: Effect of MHB dilution on antibacterial activity of a panel of antibiotics. Format: cell-based. Particulars: MHB from 100 to 12.5%.

As for RRWWRWWR-NH2 [W543], the “effect on live cells in biofilms” value in series [1] (24 hour preformed biofilms, 16 μM) is on record as “almost eliminated”. The “reduction of live bacteria” value in series [1] (24 hour preformed biofilms, treated at 8 μM) is roughly 40%. Moreover, the “activity after protease incubation” value in series [2] and in series [4] was “started to lose activity” throughout. In addition, the membrane depolarization entry in series [3] (Example 1, highest concentration tested) is on record as “did not show a clear effect”.
In the case of `CC[C@H](C)[C@H](NC(=O)[C@H](CCCCN)NC(=O)[C@H](CCC(=O)O)NC(=O)[C@H](CCCCN)NC(=O)[C@H](CO)NC(=O)[C@H](CCCCN)NC(=O)[C@H](CCCNC(=N)N)NC(=O)[C@H](Cc1ccccc1)NC(=O)[C@H](Cc1ccccc1)NC(=O)[C@H](CC(=O)O)NC(=O)CNC(=O)[C@H](CC(C)C)NC(=O)[C@@H](N)CC(C)C)C(=O)NCC(=O)N[C@@H](CCCCN)C(=O)N[C@@H](CCC(=O)O)C(=O)N[C@@H](Cc1ccccc1)C(=O)N[C@@H](CCCCN)C(=O)N[C@@H](CCCNC(=N)N)C(=O)N[C@H](C(=O)N[C@H](C(=O)N[C@@H](CCC(N)=O)C(=O)N[C@@H](CCCNC(=N)N)C(=O)N[C@H](C(=O)N[C@@H](CCCCN)C(=O)N[C@@H](CC(=O)O)C(=O)N[C@@H](Cc1ccccc1)C(=O)N[C@@H](CC(C)C)C(=O)N[C@@H](CCCNC(=N)N)C(=O)N[C@@H](CC(N)=O)C(=O)N[C@@H](CC(C)C)C(=O)N[C@H](C(=O)N1CCC[C@H]1C(=O)N[C@@H](CCCNC(=N)N)C(=O)N[C@H](C(=O)N[C@@H](CCC(=O)O)C(=O)N[C@@H](CO)C(=O)O)[C@@H](C)O)C(C)C)[C@@H](C)CC)C(C)C)[C@@H](C)CC` [LL-37], the effect on biofilms result is “dose-dependent antibiofilm effect” in series [1] (12.5% MHB) and “subtle effect” in series [1] (100% MHB). In addition, the membrane depolarization result in series [3] (Example 2, PBS with glucose) is “most powerful in membrane depolarization”.
On to `CCCCCCCCCC(=O)N[C@@H](Cc1c[nH]c2ccccc12)C(=O)N[C@H](CC(N)=O)C(=O)N[C@@H](CC(=O)O)C(=O)N[C@@H]1C(=O)NCC(=O)N[C@@H](CCCN)C(=O)N[C@@H](CC(=O)O)C(=O)N[C@H](C)C(=O)N[C@@H](CC(=O)O)C(=O)NCC(=O)N[C@H](CO)C(=O)N[C@@H]([C@H](C)CC(=O)O)C(=O)N[C@@H](CC(=O)c2ccccc2N)C(=O)O[C@@H]1C` [Daptomycin], for which the hemolysis result in series [5] is recorded as “did not lyse human red blood cells even at 400 μM”. The “change in MIC with dilution of MHB” value in series [6] is on record as “essentially no changes”.
